Data as given in PubChem BioAssay AID1963828 (Molecular Pharmacology Branch, DTP, NCI, 2024).
Where “and” joins values, the source holds several entries; their conditions need not be identical. Equal entries are not always repeated.

Test system: 991263-137-R1-J2-PDC complex spheroid viability
Assay: Anticancer human tumor 991263-137-R1-J2-PDC patient-derived colon adenocarcinoma cell line growth inhibition [POLQ]
Settings: for viability, T/C: stronger effect = lower value
Description: Multicellular complex tumor spheroid response to Polymerase (POL) inhibitors (novobiocin, ART-558, RP6685) in combination with a variety of drugs and investigational agents in selected tumor cell lines
The POL inhibitors (novobiocin, ART-558, and RP6685) were evaluated both individually and in combination with standard of care and investigational anticancer small molecules within a complex spheroid model of solid tumors. . Complex spheroids include a stromal component modeled by human endothelial cells (HUVEC) and fibroblasts modeled by human mesenchymal stem cells (MSCs). The concentration ranges selected for each drug and investigational agent were based upon clinically achievable concentrations if the clinical Cmax of the agent was known.
Compounds. The drugs and investigational agents: novobiocin (NSC847541), ART-558 (NSC835418), RP-6685 (NSC848927), peposertib (NSC802822), ceralasertib (NSC780249), elimusertib (NSC800525), camonsertib (NSC841442), AZD-1390 (NSC803789), olaparib (NSC753686), talazoparib (NSC767125), rucaparib (NSC756644), sotorasib (NSC818433), MRTX-1133 (NSC836407), SN-38 (NSC673596), topotecan (NSC609699), epotoside (NSC141540), doxorubicin (NSC123127), gemcitabine (NSC613327), 5-fluorouracil (NSC19893), paclitaxel (NSC125973), vemurafenib (NSC761431), MSA-2 (NSC828583), SN-011 (NSC837082), adavosertib (NSC754352), prexasertib (NSC758257), carboplatin (NSC241240) and oxaliplatin (NSC266046), were obtained from the National Cancer Institute (NCI) Developmental Therapeutics Program Chemical Repository (21). The FDA-approved anticancer drug set is available from the Developmental Therapeutics Program at https://dtp.cancer.gov/organization/dscb/obtaining/. […] The stock solutions were prepared in dimethyl sulfoxide (DMSO, Sigma-Aldrich, St. Louis, MO, cat. D2650), except for the platinum compounds which were prepared in saline (Quality Biological, Gaithersburg, MD, cat. 114-055-101), at 800-fold the tested concentration and stored at -70 degrees C prior to their use. All drugs and investigational agents were tested over a range starting from a high concentration at or near the clinical Cmax and decreasing in half-log increments. If the clinical Cmax for an agent had not been determined, the highest concentration tested was 10 microM, except for SN-38, which was tested at a high concentration of 1 microM.
Cell Culture. All cells were maintained in an incubator at 37 degrees C and 5% CO2 with 95% humidity. The PDC lines were cultured according to standard operating procedures established by the NCI PDMR (https://pdmr.cancer.gov). Table 3 of the manuscript, lists the cell lines along with the number of the three cell types plated to form the mct-spheroids and media for tumor cell growth. After thawing, all PDC lines, except 997537-175-T-J1-PDC and 415267-285-R-J2-PDC, were cultured in Matrigel-coated flasks prepared with a working solution of 1X Ham's F-12 nutrient mix, without supplementation (Thermo Fisher Scientific, cat. 11765054), 100 U/mL penicillin-streptomycin (Thermo Fisher Scientific, cat. 15140122), and 2.5% Matrigel (Corning Inc., Corning, NY, cat. 354248) for the first three passages. The two PDC lines 997537-175-T-J1-PDC and 415267-285-R-J2-PDC were cultured on uncoated flasks. The 857933-349-R-J2-PDC line was cultured in 6C/Colon 1B media containing advanced DMEM/F-12 (Thermo Fisher Scientific, cat. 12634028), 10 mM HEPES (Thermo Fisher Scientific, cat. 15630080), 1X GlutaMAX supplement (Thermo Fisher Scientific, cat. 35050061), 0.1 mg/mL primocin (InvivoGen, San Diego, CA, cat. ant-pm-2), 10% defined fetal bovine serum, heat inactivated (HyClone Laboratories Inc., Logan, UT, cat. SH30070.03HI), 50% L-WRN conditioned media (ATCC, cat. CRL-3276), 1.25 mM N-Acetyl-L-cysteine (Sigma-Aldrich, cat. A9165), 10 mM nicotinamide (Sigma-Aldrich, cat. N0636), 1X B-27 supplement (Thermo Fisher Scientific, cat. 17504044), 1X N-2 supplement (Thermo Fisher Scientific, cat. […]

[1] = curve of first compound, second compound 0.0316 µM
[2] = curve of first compound, second compound 0.1 µM
[3] = curve of first compound, second compound 0.316 µM
[4] = curve of first compound, second compound 1 µM
[5] = curve of first compound, second compound 3.16 µM
[6] = curve of first compound, second compound 10 µM
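Also: spheroids exposed to compounds for 7 days before readout.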
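For viability, T/C in this document: 100% = DMSO vehicle control viability.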

Compound: CC(=O)O[C@H]1C(=O)[C@@]2(C)[C@H]([C@H](OC(=O)c3ccccc3)[C@]3(O)C[C@H](OC(=O)[C@H](O)[C@@H](NC(=O)c4ccccc4)c4ccccc4)C(C)=C1C3(C)C)[C@]1(OC(C)=O)CO[C@@H]1C[C@@H]2O + COC1C(OC(N)=O)C(O)C(Oc2ccc3c(O)c(NC(=O)c4ccc(O)c(CC=C(C)C)c4)c(=O)oc3c2C)OC1(C)C
- IC50 [1]: > 3000 nM
- IC50 [2]: 1950 nM
- IC50 [3]: 1580 nM
- IC50 [4]: 1540 nM
- IC50 [5]: 1850 nM
- IC50 [6]: 1700 nM
- viability, T/C (second compound 0.0316 µM, first compound 0.00949 µM): 90%
- viability, T/C (second compound 0.0316 µM, first compound 0.03 µM): 100%
- viability, T/C (second compound 0.0316 µM, first compound 0.0949 µM): 75.2%
- viability, T/C (second compound 0.0316 µM, first compound 0.3 µM): 54.2%
- viability, T/C (second compound 0.0316 µM, first compound 0.949 µM): 51.6%
- viability, T/C (second compound 0.0316 µM, first compound 3 µM): 48.9%
- viability, T/C (second compound 0.1 µM, first compound 0.00949 µM): 100%
- viability, T/C (second compound 0.1 µM, first compound 0.03 µM): 90.3%
- viability, T/C (second compound 0.1 µM, first compound 0.0949 µM): 78.7%
- viability, T/C (second compound 0.1 µM, first compound 0.3 µM): 83%
- viability, T/C (second compound 0.1 µM, first compound 0.949 µM): 58.8%
- viability, T/C (second compound 0.1 µM, first compound 3 µM): 43%
- viability, T/C (second compound 0.316 µM, first compound 0.00949 µM): 103%
- viability, T/C (second compound 0.316 µM, first compound 0.03 µM): 97%
- viability, T/C (second compound 0.316 µM, first compound 0.0949 µM): 75.5%
- viability, T/C (second compound 0.316 µM, first compound 0.3 µM): 74.3%
- viability, T/C (second compound 0.316 µM, first compound 0.949 µM): 50.3%
- viability, T/C (second compound 0.316 µM, first compound 3 µM): 45.4%
- viability, T/C (second compound 1 µM, first compound 0.00949 µM): 93.2%
- viability, T/C (second compound 1 µM, first compound 0.03 µM): 97.5%
- viability, T/C (second compound 1 µM, first compound 0.0949 µM): 83.8%
- viability, T/C (second compound 1 µM, first compound 0.3 µM): 74.1%
- viability, T/C (second compound 1 µM, first compound 0.949 µM): 55.6%
- viability, T/C (second compound 1 µM, first compound 3 µM): 42.1%
- viability, T/C (second compound 3.16 µM, first compound 0.00949 µM): 96.2%
- viability, T/C (second compound 3.16 µM, first compound 0.03 µM): 83.5%
- viability, T/C (second compound 3.16 µM, first compound 0.0949 µM): 81.4%
- viability, T/C (second compound 3.16 µM, first compound 0.3 µM): 70.6%
- viability, T/C (second compound 3.16 µM, first compound 0.949 µM): 54.5%
- viability, T/C (second compound 3.16 µM, first compound 3 µM): 45.7%
- viability, T/C (second compound 10 µM, first compound 0.00949 µM): 86.7%
- viability, T/C (second compound 10 µM, first compound 0.03 µM): 91.2%
- viability, T/C (second compound 10 µM, first compound 0.0949 µM): 96%
- viability, T/C (second compound 10 µM, first compound 0.3 µM): 81%
- viability, T/C (second compound 10 µM, first compound 0.949 µM): 57.1%
- viability, T/C (second compound 10 µM, first compound 3 µM): 43.4%

Compound: CCc1cc2c(N3CCc4c(cc(Cn5ccnc5)cc4-c4cn(C)nc4C(F)(F)F)C3=O)ccnc2c(OC)n1
- viability, T/C (compound 0.0316 µM): 95% and 111% and 105%
- viability, T/C (compound 0.1 µM): 98.7% and 90.5% and 101%
- viability, T/C (compound 0.316 µM): 94.4% and 103% and 99.7%
- viability, T/C (compound 1 µM): 101% and 91.2% and 96.7%
- viability, T/C (compound 3.16 µM): 91.8% and 97.7% and 83.7%
- viability, T/C (compound 10 µM): 98.8% and 88.6% and 94.2%
- IC50 (curve of compound): > 10000 nM

Compound: COc1cccc(OCCCN)c1-c1cc(Nc2cnc(C#N)cn2)n[nH]1 + Cc1cccc(N(C)C(=O)C2C(O)CCN2c2nc(C)cc(C(F)(F)F)c2C#N)c1
- IC50 [1]: 677 nM
- IC50 [2]: 730 nM
- IC50 [3]: 879 nM
- IC50 [4]: 994 nM
- IC50 [5]: 833 nM
- IC50 [6]: 624 nM
- viability, T/C (second compound 0.0316 µM, first compound 0.00316 µM): 113%
- viability, T/C (second compound 0.0316 µM, first compound 0.01 µM): 104%
- viability, T/C (second compound 0.0316 µM, first compound 0.0316 µM): 90.1%
- viability, T/C (second compound 0.0316 µM, first compound 0.1 µM): 85.2%
- viability, T/C (second compound 0.0316 µM, first compound 0.316 µM): 61.2%
- viability, T/C (second compound 0.0316 µM, first compound 1 µM): 42.8%
- viability, T/C (second compound 0.1 µM, first compound 0.00316 µM): 111%
- viability, T/C (second compound 0.1 µM, first compound 0.01 µM): 95.8%
- viability, T/C (second compound 0.1 µM, first compound 0.0316 µM): 104%
- viability, T/C (second compound 0.1 µM, first compound 0.1 µM): 88.2%
- viability, T/C (second compound 0.1 µM, first compound 0.316 µM): 62.2%
- viability, T/C (second compound 0.1 µM, first compound 1 µM): 45.4%
- viability, T/C (second compound 0.316 µM, first compound 0.00316 µM): 105%
- viability, T/C (second compound 0.316 µM, first compound 0.01 µM): 99.6%
- viability, T/C (second compound 0.316 µM, first compound 0.0316 µM): 91.5%
- viability, T/C (second compound 0.316 µM, first compound 0.1 µM): 94%
- viability, T/C (second compound 0.316 µM, first compound 0.316 µM): 71.4%
- viability, T/C (second compound 0.316 µM, first compound 1 µM): 47%
- viability, T/C (second compound 1 µM, first compound 0.00316 µM): 96.2%
- viability, T/C (second compound 1 µM, first compound 0.01 µM): 101%
- viability, T/C (second compound 1 µM, first compound 0.0316 µM): 96.7%
- viability, T/C (second compound 1 µM, first compound 0.1 µM): 83%
- viability, T/C (second compound 1 µM, first compound 0.316 µM): 76.7%
- viability, T/C (second compound 1 µM, first compound 1 µM): 49.1%
- viability, T/C (second compound 3.16 µM, first compound 0.00316 µM): 110%
- viability, T/C (second compound 3.16 µM, first compound 0.01 µM): 108%
- viability, T/C (second compound 3.16 µM, first compound 0.0316 µM): 89.3%
- viability, T/C (second compound 3.16 µM, first compound 0.1 µM): 94.8%
- viability, T/C (second compound 3.16 µM, first compound 0.316 µM): 79.9%
- viability, T/C (second compound 3.16 µM, first compound 1 µM): 43.4%
- viability, T/C (second compound 10 µM, first compound 0.00316 µM): 93.7%
- viability, T/C (second compound 10 µM, first compound 0.01 µM): 96.4%
- viability, T/C (second compound 10 µM, first compound 0.0316 µM): 91.6%
- viability, T/C (second compound 10 µM, first compound 0.1 µM): 76.1%
- viability, T/C (second compound 10 µM, first compound 0.316 µM): 55%
- viability, T/C (second compound 10 µM, first compound 1 µM): 46.5%

Compound: CC[C@@]1(O)C(=O)OCc2c1cc1n(c2=O)Cc2cc3c(CN(C)C)c(O)ccc3nc2-1
- viability, T/C (compound 0.000316 µM): 111% and 94.9% and 103%
- viability, T/C (compound 0.001 µM): 101% and 96.9% and 107%
- viability, T/C (compound 0.00316 µM): 110% (2×) and 111%
- viability, T/C (compound 0.01 µM): 105% and 101% and 91.5%
- viability, T/C (compound 0.0316 µM): 100% and 91.2% and 89.8%
- viability, T/C (compound 0.1 µM): 90.4% and 80.7% and 84.4%
- IC50 (curve of compound): > 100 nM
